According to US12358959B2, “Compositions and methods for oligodendrocyte development” (CHILDREN'S MEDICAL CENTER CORPORATION, priority 2016, dated 2025):

How the values were obtained:
[1] = tested on: oligodendrocyte precursors (OPCs); experiment: OPC proliferation in culture with recombinant TGM2, BrdU/PDGFRα double immunostaining; format: cell-based, mouse; conditions: 2 nM recombinant TGM2, 24 hrs
Description: FIG. 14A depicts a TGM2 western blot on acutely isolated microglia, OPCs, astrocytes and oligodendrocytes. β-actin was used as loading control. FIG. 14B depicts representative images of BrdU (white) and PDGFRα (light gray) double immunostaining on OPC cultured for 24 hrs in proliferation media in the presence and absence of 2 nM recombinant TGM2. Scale bar, 100 μm. FIG. 14C depicts quantification of the percentage of BrdU^+ of total PDGFRα^+ OPCs. *P=0.0492, paired t-test, N=3 per genotype. Error bars are means±s.e.m.
To investigate whether TGM2 directly regulates OPC proliferation in a GPR56-dependent manner, OPCs derived from P5 Gpr56^+/− or Gpr56^−/− pups were cultured in the presence or absence of human recombinant TGM2 (FIGS. 15A and 15B) with the presence of BrdU. The cells were double immunostained for PDGFRα and BrdU (FIG. 14B).

[2] = tested on: oligodendrocyte precursors (OPCs); experiment: OPC proliferation on laminin-111 or fibronectin with recombinant TG2; format: cell-based, mouse
From the text: P=0.70 (control vs. TG2-W241A); **P=0.0088 (TG2 vs. TG2-W241A). […] FIG. 16D depicts a Western blot of active RhoA (top panel) and total RhoA (bottom panel) in the corpus callosum (CC) of Tgm2^+/+ and Tgm2^−/− mice. FIG. 16E is a graph showing that the relative level of active RhoA to total RhoA was diminished in the CC of Tgm2^−/− mice compared to […]. *P=0.0207, unpaired t-test, N=3 per genotype. FIG. 16F depicts a Western blot of GPR56^N in the supernatant of HEK 293T cell culture after exposed to either TG2 or TG2+laminin-111 (top panel), GTP-RhoA (middle panel) and total RhoA (lower panel) in HEK 293T cell pellet exposed to either TG2 or TG2+laminin-111. FIG. 16G is a graph showing that released GPR56 NTF was increased in the presence of both TG2 and laminin-111. ***P=0.0002; One-way ANOVA followed by Tukey post-hoc test, F (2,6)=49.66, n.s. P=0.95 (control vs. TG2); ***P=0.0003 (control vs. TG2+laminin-111); ***P=0.0004 (TG2 vs. TG2+laminin-111); N=3 per treatment group. FIG. 16H is a graph showing that the relative level of GTP-RhoA to total RhoA was increased in the presence of both TG2 and laminin-111, corresponding to the increased GPR56 NTF in the supernatant. **P=0.0028; One-way ANOVA followed by Tukey post-hoc test, F (2,6)=18.19, n.s. P=0.75 (control vs. TG2); **P=0.0035 (control vs. TG2+laminin-111); **P=0.0071 (TG2 vs. TG2+laminin-111) N=3 per treatment group. Error bars are mean±s.e.m in FIGS. 16E, 16G, and 16H.
To establish conditions for mechanistic investigation of the function of TG2 on OPC GPR56 during myelination and remyelination, in vitro experiments were performed with wt and Gpr56^−/− oligodendrocyte precursors (OPCs) and human recombinant TG2. […] TG2 is an extracellular protein with intrinsic transamidation activity, capable of cross-linking ECM proteins, including laminin-111 (Aeschlimann et al., J Biol Chem 267, 11316-11321, 1992; Belkin, FEBS J 278, 4704-4716, 2011). […] To confirm that TG2 regulates OPC proliferation in a GPR56-dependent manner, OPCs derived from P5 Gpr56^+/+ or Gpr56^−/− pups were cultured in the presence of laminin-111, with or without recombinant TG2. TG2-associated proliferation was attenuated in Gpr56^−/− OPCs (FIG. 16C), further supporting a GPR56-dependent TG2 function on OPC proliferation.
Oligodendrocyte precursor cells (OPCs) were isolated from mixed male and female P5-8 Gpr56^+/+ or Gpr56^−/− mouse forebrains as previously described (Wang et al., Neuron 29, 603-614, 2001; Watkins et al., Neuron 60, 555-569, 2008). Briefly, OPCs were purified by negatively selecting with mouse anti-Thy 1.2 (Serotec, Cat #MCA02R) and mouse anti-GalC (Millipore, Cat #MAB342), followed by mouse anti-04 (04 hybridoma supernatant) for positive selection. After releasing OPCs from the 04 plate by trypsinization, cells were resuspended in proliferation media containing PDGF-AA and NT-3 (PreproTech). OPCs were plated on coverslips coated with poly-D-lysine before coating with laminin I (R&D Systems, Cat #3400-010-01) or fibronectin (Millipore, Cat #341668) as previously described (Dugas et al., J Neurosci 26, 10967-10983, 2006). After 24 hr, TG2 (2 nM) was added to the cultures and incubated for an additional 24 hr before fixation with 4% PFA and staining for PDGFRα and Ki67.

In the case of Transglutaminase 2 [TG2], the “OPC proliferation (percentage of BrdU+ of total PDGFRα+ OPCs)” value ([1]; proliferation media, OPCs printed as Gpr56−/− (first mention; cultures were Gpr56+/− or Gpr56−/−)) was “significantly increased”, the “OPC proliferation (percentage of BrdU+ of total PDGFRα+ OPCs)” value ([1]; Gpr56−/− OPCs (second mention)) was “attenuated” and the OPC proliferation ([2]; Gpr56−/− OPCs, in the presence of laminin-111, with recombinant TG2) was “attenuated”. For the same substance, the OPC proliferation ([2]; Gpr56−/− OPCs, in the presence of laminin-111, with recombinant TG2, listed as recombinant TG2) was “failed to respond”, the “OPC proliferation, wild type TG2 vs enzymatic dead mutant” value ([2]; versus control, One-way ANOVA, Tukey post-hoc) was “stimulated OPC proliferation” and the OPC proliferation ([2]; wt OPCs, basal condition (no laminin-111), TG2 2 nM, 24 hr) was “failed to augment”. For the same substance, the OPC proliferation ([2]; wt OPCs, in the presence of laminin-111, TG2 2 nM, 24 hr) was “stimulated OPC proliferation” and the OPC proliferation ([2]; wt OPCs, in the presence of laminin-111, TG2 2 nM, 24 hr, listed as recombinant TG2) was “significantly increased”.
